Reference: US8354419B2, “Benzimidazole analogues for the treatment or prevention of flavivirus infections” (Vertex Pharmaceuticals Incorporated, priority 2009, dated 2013)
pEC50: −log10 of the molar value. Read-outs that look alike come from different tables or passages of the source.

Tested on: HCV (Ib) RNA replication
Experiment: Cell-based luciferase reporter HCV (1b) RNA replication assay (replicon cell lines Huh-7 5.2 and ET)
Design: species or system Hepatitis C virus
Conditions: HCV 1b genotype replicon, luciferase readout, 4 days incubation, read-out: EC50_1b
In short: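 Huh-7-derived 5.2 or ET replicon cells carrying a firefly luciferase reporter were seeded at ~3000 cells/well in medium without G418 or phenol red. Compound was added after 3-4 h, followed by 4 days at 37 °C. Luciferase readout was used, with IC50 fitted by nonlinear regression from eleven concentrations in duplicate.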

Row | SMILES | pEC50 (Hepatitis C virus, Huh-7, 96 h) | pEC50
1 | O=C(OCc1ccccc1)N1CCCC[C@H]1c1nc2cc(C#Cc3ccc4nc([C@@H]5CCCCN5C(=O)OCc5ccccc5)[nH]c4c3)ccc2[nH]1 [Compound 30, (S)-2-{5-[2-((S)-1-Benzyloxycarbonyl-piperidin-2-yl)-1H-benzoimidazol-5-ylethynyl]-1H-benzoimidazol-2-yl}-piperidine-1-carboxylic acid benzyl ester] | 5.30 to 8.30 | 
2 | CC[C@H](NC(C)=O)C(=O)N1CCC[C@H]1c1nc2cc(C#Cc3ccc4[nH]c([C@@H]5CCCN5C(=O)[C@H](CC)NC(C)=O)nc4c3)ccc2[nH]1 [Compound 111] | 5.30 to 8.30 | 
3 | CC(C)[C@H](NC(=O)O[C@H]1CCOC1)C(=O)N1CCC[C@H]1c1nc2cc(-c3cscc3-c3ccc4[nH]c([C@@H]5CCCN5C(=O)[C@@H](NC(=O)O[C@H]5CCOC5)C(C)C)nc4c3)ccc2[nH]1 [Compound 45, bis((S)-tetrahydrofuran-3-yl)-(2S,2′S)-1,1′-((2S,2′S)-2,2′-(5,5′-(thiophene-3,4-diyl)bis(1H-benzo[d]imidazole-5,2-diyl))bis(pyrrolidine-2,1-diyl))bis(3-methyl-1-oxobutane-2,1-diyl)dicarbamate] | 5.30 to 8.30 | 
4 | COC(=O)N[C@H](C(=O)N1CCC[C@H]1c1nc2cc(-c3cc4sc(-c5ccc6nc([C@@H]7CCCN7C(=O)[C@@H](NC(=O)OC)C(C)C)[nH]c6c5)cc4s3)ccc2[nH]1)C(C)C [Compound 167] | ≥ 8.30 | 
5 | COC(=O)N[C@H](C(=O)N1CCC[C@H]1c1nc2cc(-c3cnc(-c4ccc5[nH]c([C@@H]6CCCN6C(=O)[C@@H](NC(=O)OC)C(C)C)nc5c4)s3)ccc2[nH]1)C(C)C [Compound 176] | 5.30 to 8.30 | 
6 | O=C([C@H]1C[C@@H](O)CN1)N1CCC[C@H]1c1nc2cc(C#Cc3ccc4[nH]c([C@@H]5CCCN5C(=O)[C@H]5C[C@@H](O)CN5)nc4c3)ccc2[nH]1 [Compound 99] | 5.30 to 8.30 | 
7 | COC(=O)N[C@H](C(=O)N1C[C@@H](C)C[C@H]1c1nc2cc(-c3cc(C)c(-c4ccc5[nH]c([C@@H]6C[C@H](C)CN6C(=O)[C@H](C(C)C)N(C)C(=O)OC)nc5c4)cc3C)ccc2[nH]1)C(C)C [Compound 276] | ≥ 8.30 | 
8 | COC(=O)N[C@H](C(=O)N1C[C@@H](C)C[C@H]1c1nc2cc(-c3cc(C)c(-c4ccc5[nH]c([C@@H]6C[C@H](C)CN6C(=O)[C@@H](NC(=O)OC)C(C)C)nc5c4)cc3C)ccc2[nH]1)C(C)C [Compound 252] | ≥ 8.30 | 
9 | COC(=O)N[C@H](C(=O)N1[C@@H](C)CC[C@H]1c1nc2ccc(-c3ccc(-c4ccc5nc([C@@H]6CC[C@H](C)N6C(=O)[C@@H](NC(=O)OC)C(C)C)[nH]c5c4)c4nsnc34)cc2[nH]1)C(C)C [Compound 317] | ≥ 8.30 | 
10 | COC(=O)N[C@H](C(=O)N1CCC[C@H]1c1nc2cc(-c3ccc(-c4ccc5nc([C@@H]6CCCN6C(=O)[C@@H](NC(=O)OC)C(C)C)[nH]c5c4)cc3C(=O)O)ccc2[nH]1)C(C)C [Compound 198] | ≥ 8.30 | 
11 | CCOC(=O)N[C@H](C(=O)N1CCC[C@H]1c1nc2cc(-c3ccc(-c4ccc5[nH]c([C@@H]6CCCN6C(=O)[C@@H](NC(=O)OCC)C(C)C)nc5c4)cc3)ccc2[nH]1)C(C)C [Compound 178] | ≥ 8.30 | 
12 | COC(=O)N[C@H](C(=O)N1CCC[C@H]1c1nc2ccc(-c3cnc(-c4ccc5nc([C@@H]6CCCN6C(=O)[C@@H](NC(=O)OC)C(C)C)[nH]c5c4)n3C)cc2[nH]1)C(C)C [Compound 200] | 5.30 to 8.30 | 
13 | COC(=O)N[C@H](C(=O)N1[C@@H](C)CC[C@H]1c1nc2cc(-c3ccc(-c4ccc5[nH]c([C@@H]6CC[C@H](C)N6C(=O)[C@@H](NC(=O)OC)C(C)C)nc5c4)c4c3OCO4)ccc2[nH]1)C(C)C [Compound 318] | ≥ 8.30 | 
14 | CC(C)[C@H](NS(C)(=O)=O)C(=O)N1CCC[C@H]1c1nc2cc(C#Cc3ccc4nc([C@@H]5CCCN5C(=O)[C@@H](NS(C)(=O)=O)C(C)C)[nH]c4c3)ccc2[nH]1 [Compound 65] | 5.30 to 8.30 | 
15 | COC(=O)N[C@@H](Cc1cncn1C)C(=O)N1CCC[C@H]1c1nc2cc(-c3ccc(-c4ccc5[nH]c([C@@H]6CCCN6C(=O)[C@@H](NC(=O)OC)C(C)C)nc5c4)cc3)ccc2[nH]1 [Compound 203] | ≥ 8.30 | 
16 | CC(C)[C@@H](C(=O)N1CCC[C@H]1c1nc2cc(C#Cc3ccc4[nH]c([C@@H]5CCCN5C(=O)[C@H](C(C)C)N5CCCC5=O)nc4c3)ccc2[nH]1)N1CCCC1=O [Compound 81] | ≥ 8.30 | 
17 | COC(=O)N[C@H](C(=O)N1CCC[C@H]1c1nc2cc(-c3c[nH]c(-c4ccc5nc([C@@H]6CCCN6C(=O)[C@@H](NC(=O)OC)C(C)C)[nH]c5c4)n3)ccc2[nH]1)C(C)C [Compound 202] | 5.30 to 8.30 | 
18 | COC(=O)N[C@H](C(=O)N1CCC[C@H]1c1nc2cc(-c3ccc(-c4ccc5[nH]c([C@@H]6CCCN6C(=O)[C@@H](NC(=O)OC)C(C)C)nc5c4)c4c3OC(F)(F)O4)ccc2[nH]1)C(C)C [Compound 221] | ≥ 8.30 | 

Row | SMILES | pEC50 (Hepatitis C virus, Huh-7, 96 h) | pEC50
19 | COC(=O)N[C@H](C(=O)N1CCC[C@H]1c1nc2c(F)cc(-c3ccc(-c4cc(F)c5nc([C@@H]6CCCN6C(=O)[C@@H](NC(=O)OC)C(C)C)[nH]c5c4)c(C)c3)cc2[nH]1)C(C)C [Compound 254] | ≥ 8.30 | 
20 | CC(C)(C)OC(=O)N1CCN(C(=O)OCc2ccccc2)[C@H](c2nc3cc(C#Cc4ccc5[nH]c([C@@H]6CN(C(=O)OC(C)(C)C)CCN6C(=O)OCc6ccccc6)nc5c4)ccc3[nH]2)C1 [Compound 29, (S)-2-{5-[2-((S)-1-Benzyloxycarbonyl-4-tert-butyloxycarbonyl-piperazin-2-yl)-1H-benzoimidazol-5-ylethynyl]-1H-benzoimidazol-2-yl}-piperazine-1,4-dicarboxylic acid 1-benzyl ester 4-tert-butyl ester] | < 5.30 | 
21 | CC(C)[C@H](NC(=O)Cc1c[nH]c2ccccc12)C(=O)N1CCC[C@H]1c1nc2cc(C#Cc3ccc4[nH]c([C@@H]5CCCN5C(=O)[C@@H](NC(=O)Cc5c[nH]c6ccccc56)C(C)C)nc4c3)ccc2[nH]1 [Compound 89] | 5.30 to 8.30 | 
22 | CCCC/C(=C/c1ccc2[nH]c([C@@H]3CCCN3C(=O)[C@@H](NC(=O)OC)C(C)C)nc2c1)c1ccc2[nH]c([C@@H]3CCCN3C(=O)[C@@H](NC(=O)OC)C(C)C)nc2c1 [Compound 153] | ≥ 8.30 | 
23 | COC(=O)N[C@H](C(=O)N1CCC[C@H]1c1nc2cc(-c3cnc(-c4ccc5[nH]c([C@@H]6CCCN6C(=O)[C@@H](NC(=O)OC)C(C)C)nc5c4)nc3)ccc2[nH]1)C(C)C [Compound 15, ((S)-1-{(S)-2-[5-(5-{2-[(S)-1-((S)-2-Methoxycarbonylamino-3-methyl-butyryl)-pyrrolidin-2-yl]-1H-benzoimidazol-5-yl}-pyrimidin-2-yl)-1H-benzoimidazol-2-yl]-pyrrolidine-1-carbonyl}-2-methyl-propyl)-carbamic acid methyl ester] | ≥ 8.30 | 
24 | O=C(OCc1ccccc1)N1CCCC[C@H]1c1nc2cc(C#C/C=C/c3ccc4[nH]c([C@@H]5CCCCN5C(=O)OCc5ccccc5)nc4c3)ccc2[nH]1 [Compound 40, (S)-2-(5-{(E)-4-[2-((S)-1-Benzyloxycarbonyl-piperidin-2-yl)-1H-benzoimidazol-5-yl]-but-1-en-3-ynyl}-1H-benzoimidazol-2-yl)-piperidine-1-carboxylic acid benzyl ester] | 5.30 to 8.30 | 
25 | COC(=O)N[C@H](C(=O)N1C[C@@H](C)C[C@H]1c1nc2cc(-c3cc4sc(-c5ccc6nc([C@@H]7C[C@H](C)CN7C(=O)[C@@H](NC(=O)OC)C(C)C)n(C)c6c5)cc4s3)ccc2[nH]1)C(C)C [Compound 323] | ≥ 8.30 | 
26 | C(#Cc1ccc2[nH]c([C@@H]3CCCN3CC3CCCC3)nc2c1)c1ccc2[nH]c([C@@H]3CCCN3CC3CCCC3)nc2c1 [Compound 139] | 5.30 to 8.30 | 
27 | CC(C)[C@@H](NC(=O)O[C@H]1CCOC1)C(=O)N1CCC[C@H]1c1nc2cc(C#Cc3ccc4[nH]c([C@@H]5CCCN5C(=O)[C@H](NC(=O)O[C@H]5CCOC5)C(C)C)nc4c3)ccc2[nH]1 [Compound 82] | 5.30 to 8.30 | 
28 | COC(=O)N[C@H](C(=O)N1CCC[C@H]1c1nc2cc(-c3cc(C#N)c(-c4ccc5[nH]c([C@@H]6CCCN6C(=O)[C@@H](NC(=O)OC)C(C)C)nc5c4)cc3Cl)ccc2[nH]1)C(C)C [Compound 154] | ≥ 8.30 | 
29 | COC(=O)N[C@H](C(=O)N1CCC[C@H]1c1nc2cc(C#Cc3ccc4[nH]c([C@@H]5CCCN5C(=O)[C@@H](NC(=O)OC)C5CC5)nc4c3)ccc2[nH]1)C1CC1 [Compound 94] | 5.30 to 8.30 | 
30 | COC(=O)N[C@H](C(=O)N1CCC[C@H]1c1nc2cc(-c3ccsc3-c3ccc4[nH]c([C@@H]5CCCN5C(=O)[C@@H](NC(=O)OC)C(C)C)nc4c3)ccc2[nH]1)C(C)C [Compound 133] | ≥ 8.30 | 
31 | COC(=O)N[C@H](C(=O)N1CC2CC2C1c1nc2cc(-c3ccc(-c4ccc5[nH]c(C6C7CC7CN6C(=O)[C@@H](NC(=O)OC)C(C)C)nc5c4)cc3)ccc2[nH]1)C(C)C (stereo partly drawn) [Compound 244] |  | ≥ 8.30
32 | COCC(=O)N[C@H](C(=O)N1CCC[C@H]1c1nc2ccc(-c3ccc(-c4ccc5nc([C@@H]6CCCN6C(=O)[C@@H](NC(=O)COC)C(C)C)[nH]c5c4)cc3)cc2[nH]1)C(C)C [Compound 196] | 5.30 to 8.30 | 
33 | COC(=O)N[C@H](C(=O)N1C[C@H](C)C[C@H]1c1nc2cc(-c3ccc(-c4ccc5[nH]c([C@@H]6C[C@@H](C)CN6C(=O)[C@@H](NC(=O)OC)C(C)C)nc5c4)cc3)ccc2[nH]1)C(C)C [Compound 248] | ≥ 8.30 | 
34 | COC(=O)N[C@H](C(=O)N1C[C@@H](C)C[C@H]1c1nc2cc(-c3ccc(-c4ccc5[nH]c([C@@H]6C[C@H](C)CN6C(=O)[C@@H](NC(=O)OC)C(C)C)nc5c4)c(F)c3)ccc2[nH]1)C(C)C [Compound 242] | ≥ 8.30 | 
35 | CC(C)[C@H](N)C(=O)N1CCC[C@H]1c1nc2ccc(-c3ccc(-c4ccc5nc([C@@H]6CCCN6C(=O)[C@@H](N)C(C)C)[nH]c5c4)cc3)cc2[nH]1 [Compound 197] | 5.30 to 8.30 | 
36 | COC(=O)N[C@H](C(=O)N1CCC[C@H]1c1nc2cc(-c3ccc(-c4ccc5[nH]c([C@@H]6CCCN6C(=O)[C@@H](NC(=O)OC)[C@@H](C)OC)nc5c4)cc3)ccc2[nH]1)C(C)C [Compound 208] | ≥ 8.30 | 
